Test results from article PMC11173677, “Identification and Evaluation of Olive Phenolics in the Context of Amine Oxidase Enzyme Inhibition and Depression: In Silico Modelling and In Vitro Validation” (Molecules, 2024).

Assays:
purified MAO-B = biological target: T1, purified MAO-B (Homo sapiens, UniProt P27338); assay: MAO-B direct screening assay (inhibitor screening kit); assay type: biochemical; conditions: purified enzyme; read-out: IC50, inhibition of MAO-B
T1 construct: purchased Sigma-Aldrich MAK296
T1 sequence (P27338 1-520): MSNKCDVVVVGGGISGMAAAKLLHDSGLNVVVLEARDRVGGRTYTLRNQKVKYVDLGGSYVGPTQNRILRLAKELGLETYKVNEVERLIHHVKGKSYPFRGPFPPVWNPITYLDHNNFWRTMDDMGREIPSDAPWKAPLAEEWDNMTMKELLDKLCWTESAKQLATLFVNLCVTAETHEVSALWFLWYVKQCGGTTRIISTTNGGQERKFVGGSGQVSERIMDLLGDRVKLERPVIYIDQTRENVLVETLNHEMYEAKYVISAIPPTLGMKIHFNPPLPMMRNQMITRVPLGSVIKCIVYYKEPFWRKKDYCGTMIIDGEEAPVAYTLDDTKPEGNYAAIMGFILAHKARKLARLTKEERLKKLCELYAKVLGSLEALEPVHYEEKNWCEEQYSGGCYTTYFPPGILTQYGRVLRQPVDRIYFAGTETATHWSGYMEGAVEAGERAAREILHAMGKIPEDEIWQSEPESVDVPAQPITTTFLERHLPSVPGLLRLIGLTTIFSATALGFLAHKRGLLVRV
Description: (§1) The assays were conducted for MAO-A and MAO-B according to the manufacturer’s instructions.

purified MAO-A = biological target: T2, purified MAO-A (Homo sapiens, UniProt P21397); assay: MAO-A direct screening assay (inhibitor screening kit); assay type: biochemical; conditions: purified enzyme; read-out: IC50, inhibition of MAO-A
T2 construct: purchased Sigma-Aldrich MAK295
T2 sequence (P21397 1-527): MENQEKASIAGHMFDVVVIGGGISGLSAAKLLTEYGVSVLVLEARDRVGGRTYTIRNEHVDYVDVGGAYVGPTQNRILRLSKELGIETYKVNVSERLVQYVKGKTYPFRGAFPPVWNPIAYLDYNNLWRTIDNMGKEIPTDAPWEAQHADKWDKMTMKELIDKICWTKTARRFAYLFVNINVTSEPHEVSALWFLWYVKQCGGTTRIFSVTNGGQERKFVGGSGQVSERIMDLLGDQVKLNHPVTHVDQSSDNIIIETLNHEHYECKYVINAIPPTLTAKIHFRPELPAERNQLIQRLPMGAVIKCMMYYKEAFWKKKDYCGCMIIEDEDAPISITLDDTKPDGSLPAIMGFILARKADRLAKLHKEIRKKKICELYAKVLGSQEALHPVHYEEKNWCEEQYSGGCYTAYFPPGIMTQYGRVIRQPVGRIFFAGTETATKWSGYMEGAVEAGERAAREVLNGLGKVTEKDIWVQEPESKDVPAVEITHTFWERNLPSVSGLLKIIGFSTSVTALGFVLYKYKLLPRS
Description: as §1

LSD1 = biological target: T3, LSD1 (Homo sapiens, UniProt O60341); assay: LSD1 fluorescence coupling enzyme assay (Reaction Biology Corporation); assay type: biochemical; conditions: Reaction Biology Corp., 30 min pre-incubation, 10 μM histone H3(1-21)K4me2 peptide substrate; read-out: IC50, LSD1 demethylase activity
T3 construct: Reaction Biology Corporation (performed the assay)
Description: The inhibitory activity of HCl 489479, OLC, and OLP was measured using a fluorescence coupling enzyme assay (performed by Reaction Biology Corporation). […] All compounds were pre-incubated for 30 min with the enzyme before the addition of 10 μM histone H3(1-21)K4me2 peptide substrate to start the reaction. Fluorescence was measured using an EnVision Multimode Plate Reader at Ex/Em = 535/590.

MAO-A = system: T4, MAO-A; assay: MAO-A activity assay in corticosteroid-stimulated BJ cells; assay type: cell-based, human; conditions: then 50 μM compound 24 h
T4 construct: endogenous in cells; host or cells: BJ human foreskin fibroblasts stimulated with DEX or HC
Description: (§2) The BJ cells were subsequently incubated with 10 μM HC or 100 μM DEX to stimulate MAO expression. […] The untreated BJ cells received normal growth medium. The cells were collected, homogenised, and analysed through Western blotting where the expression of MAO-A/B was determined through immunodetection of protein subtypes.
(§3) Activity assays were commercially sourced from BioVision (Abcam, BioVision ab241031, Waltham, MA, USA) and were performed according to manufacturer’s instructions. The treatment groups were plated in duplicate on a black, flat 96-well microplate. The cells were homogenised in assay buffer using a microtube mixer at 4 °C and centrifuged at 10,000× g for 10 min. A Bradford assay was performed to determine the total protein concentration within each cell pellet (200 μg/well for BJ cells, 40 μg/well for hESC-derived neurons). Approximately 40 μL of supernatant was loaded into wells along with 10 μL of either […], or assay buffer for total MAO activity. A H2O2 standard was pipetted as supplied and 50 μL of reaction mix was pipetted into all wells. Using a CLARIOstar Plus Microplate Reader, (BMG Labtech, Ortenberg, Germany), fluorescence was measured kinetically at 25 °C for 60 min with Ex/Em = 535/587 nm.

MAO-B = system: T5, MAO-B; assay: MAO-B activity assay in corticosteroid-stimulated BJ cells; assay type: cell-based, human; conditions: then 50 μM compound 24 h
T5 construct: endogenous in cells; host or cells: BJ human foreskin fibroblasts stimulated with DEX or HC
Description: as §2, §3

purified LSD1 = purified LSD1 (Homo sapiens, UniProt O60341); assay: LSD1 direct screening assay (Epigentek inhibitory screening kit); assay type: biochemical; conditions: direct incubation with purified LSD1, Epigentek kit; read-out: IC50, inhibition of LSD1
Description: Fluorescence was measured using a CLARIOstar Plus Microplate Reader (BMG Labtech, Ortenberg, Germany) at excitation and emission wavelengths of 530 nm and 590 nm, respectively (Ex/Em = 530/590 nm).

BJ cells = assay: Viability of BJ cells (CellTiter-Blue Cell Viability Assay); assay type: cell-based, human; conditions: for IC50: Homo sapiens, BJ
Description: The BJ cells were seeded at densities of 10,000 cells in black flat bottom 96-well plates (Nalge Nunc, Penfield, Rochester, NY, USA) and treated with a dose–response of OLC (0–500 μM) and OLP (0–500 μM) for 24 h, 48 h, 72 h, and 7 days at 37 °C, 5% (v/v) CO2. Cell viability was measured using the Cell-Titer Blue® Assay kit (Promega, Madison, WI, USA) according to the manufacturer’s instructions. Cell-Titer Blue reagent was added to each well and incubated for 4 h at 37 °C with 5% (v/v) CO2 before the fluorescence intensity was read using the CLARIOstar Microplate Reader (BMG Labtech, Ortenberg, Germany).
A Nikon Eclipse Ts2 light microscope (Nikon Ti TS2-S-SM, Tokyo, Japan) was used to image untreated and treated BJ cells (OLP or OLC: 0–100 μM) at 4× objective magnification at 20, 44, and 120 h (Figures S1 and S2).

MAO-A/B expression = assay: MAO-A/B protein expression in HC- or DEX-stimulated BJ cells (Western blotting); assay type: cell-based, human; conditions: 10 μM HC 5 days or 100 μM DEX 7 days, then 50 μM compound; Western blot
Description: as §2

IC50 (purified MAO-B): 32 µM
IC50 (purified MAO-A): 0.85 µM
IC50 (LSD1): 0.12 µM
IC50 (purified LSD1): 0.8 µM
Compound: COC(=O)[C@H](O)CC(=O)OCCc1ccc(O)c(O)c1 [OLP, oleohydroxypyretol]
MAO-A activity in BJ cells (MAO-A; 10 μM HC 5 days): downregulate
MAO-A activity in BJ cells (MAO-A; 100 μM DEX 7 days): downregulate
MAO-B activity in BJ cells (MAO-B; 10 μM HC 5 days): downregulate
MAO-B activity in BJ cells (MAO-B; 100 μM DEX 7 days): downregulate
relative viability of BJ cells at the highest concentration (BJ cells; 500 μM): decreased
proliferation potential of BJ cells (BJ cells; 25, 50, 75 and 100 μM, similar to untreated cells): maintained their proliferation potential
IC50 (BJ cells; 24 h): 220 µM
IC50 (BJ cells; 48 h): 257 µM
toxicity to BJ cells at the concentrations used in further experiments (BJ cells; concentrations used in further experiments (50 μM)): non-toxic
viability of BJ cells at lower concentrations (BJ cells; up to 200 μM): largely maintained
MAO enzyme expression within BJ cells (MAO-A/B expression): Potent inhibition
